IC50 data for four molecules are collected here from ChEMBL document CHEMBL1142006, “Chemistry and biology of mercaptoacetamides as novel histone deacetylase inhibitors” (Bioorg Med Chem Lett, 2005).

Assay [1] has as its system PC-3. Nature of the assay: Antiproliferative activity against PC-3 cancer cells. It is filed as functional, cell-based. Particulars: Homo sapiens.
For assay [2], the species on record is Homo sapiens. Nature of the assay: Antiproliferative activity against SQ-20B cancer cells. As to conditions: Cancer cell lines. The assay is classed as functional.
For assay [3], the system named is MCF7. Nature of the assay: Antiproliferative activity against MCF-7 cancer cell line. It is filed as functional, cell-based. As to conditions: Homo sapiens.
The subject of assay [4] is HeLa. Nature of the assay: Antiproliferative activity towards human HeLa cancer cells. The assay is classed as functional, cell-based.

For `O=C(CS)NCCCCCC(=O)Nc1cnc2ccccc2c1`, the IC50 in assay [1] was 50 µM; in assay [2] it was 100 µM; in assay [3], 80 µM.

As for `O=C(CS)NCCCCCC(=O)Nc1cccc2cccnc12`, the 50% inhibitory concentration (IC50) was found to be 33 µM in assay [1], 31 µM in assay [2], 30 µM in assay [4] and 42 µM in assay [3].

Turning to `CN(C)c1ccc(C(=O)NCCCCCNC(=O)CS)cc1`, the IC50 in assay [1] was found to be 110 µM; in assay [2], 100 µM; in assay [4] it was 108 µM; in assay [3] it was 125 µM.

Regarding `O=C(CS)NCCCCCNC(=O)c1ccc(-c2ccccc2)cc1`, the IC50 in assay [1] amounted to 100 µM; in assay [2], 130 µM; in assay [4], 80 µM.
